Patent US8455547B2, “Substituted cyclopentanes having prostaglandin activity” (Allergan, Inc., priority 2008, dated 2013)

Legend:
[1] = target: T1, EP2 (Homo sapiens, UniProt P43116); assay: EP2 Ca2+ signal assay; assay type: cell-based; conditions: for EP2 Ca2+ signal % PGE2: relative to PGE2
Description: (§1) U.S. patent application Ser. No. 11/553,143, filed on Oct. 26, 2006, incorporated by reference herein, describes the methods used to obtain the in vitro data in Tables 1 and 2 below.

[2] = target: T1, EP2; assay: EP2 cAMP assay; assay type: cell-based
Description: as §1

[3] = target: T2, EP3 (Homo sapiens, UniProt P43115); assay: EP3 functional assay; assay type: cell-based
T2 sequence (P43115 1-390): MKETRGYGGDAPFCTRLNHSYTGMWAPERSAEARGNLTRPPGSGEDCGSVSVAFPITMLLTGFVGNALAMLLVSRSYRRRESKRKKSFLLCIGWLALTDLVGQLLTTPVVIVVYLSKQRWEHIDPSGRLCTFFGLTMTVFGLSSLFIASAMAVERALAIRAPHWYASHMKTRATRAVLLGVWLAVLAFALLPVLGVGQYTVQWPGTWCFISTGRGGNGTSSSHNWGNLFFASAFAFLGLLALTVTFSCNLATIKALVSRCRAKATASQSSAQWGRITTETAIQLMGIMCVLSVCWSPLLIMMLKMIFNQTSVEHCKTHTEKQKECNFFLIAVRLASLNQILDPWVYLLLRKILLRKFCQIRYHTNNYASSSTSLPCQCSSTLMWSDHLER
Description: as §1

[4] = target: T3, EP4 (Homo sapiens, UniProt P35408); assay: EP4 Ca2+ signal assay; assay type: cell-based; conditions: for EP4 Ca2+ signal % PGE2: relative to PGE2
Description: as §1

[5] = target: T4, TP (Homo sapiens, UniProt P21731); assay: TP functional assay; assay type: cell-based
T4 sequence (P21731 1-343): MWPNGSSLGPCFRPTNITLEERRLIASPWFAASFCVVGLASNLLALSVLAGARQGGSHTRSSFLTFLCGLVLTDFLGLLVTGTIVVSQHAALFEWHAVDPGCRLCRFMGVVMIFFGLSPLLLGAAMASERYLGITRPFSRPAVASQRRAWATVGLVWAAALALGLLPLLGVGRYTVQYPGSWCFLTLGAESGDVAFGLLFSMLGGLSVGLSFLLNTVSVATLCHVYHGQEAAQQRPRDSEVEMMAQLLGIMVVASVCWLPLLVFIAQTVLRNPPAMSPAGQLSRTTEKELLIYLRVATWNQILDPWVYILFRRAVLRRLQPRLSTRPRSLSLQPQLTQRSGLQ
Description: as §1

[6] = target: T3, EP4; assay: EP4 binding assay
Description: as §1

[7] = target: T1, EP2; assay: EP2 binding assay
Description: as §1

[8] = target: T5, EP1 (Homo sapiens, UniProt P34995); assay: EP1 functional assay; assay type: cell-based
T5 sequence (P34995 1-402): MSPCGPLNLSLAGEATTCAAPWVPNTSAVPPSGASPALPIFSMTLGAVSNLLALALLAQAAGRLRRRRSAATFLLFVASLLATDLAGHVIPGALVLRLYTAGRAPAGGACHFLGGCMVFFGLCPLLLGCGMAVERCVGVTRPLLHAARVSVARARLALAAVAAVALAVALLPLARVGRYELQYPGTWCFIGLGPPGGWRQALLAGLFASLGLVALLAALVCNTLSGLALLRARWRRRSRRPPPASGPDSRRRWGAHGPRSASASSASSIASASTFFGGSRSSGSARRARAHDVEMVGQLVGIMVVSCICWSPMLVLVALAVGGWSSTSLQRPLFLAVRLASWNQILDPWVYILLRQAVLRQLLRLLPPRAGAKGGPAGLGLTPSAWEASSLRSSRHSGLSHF
Description: as §1

T3 sequence (P35408 whole entry): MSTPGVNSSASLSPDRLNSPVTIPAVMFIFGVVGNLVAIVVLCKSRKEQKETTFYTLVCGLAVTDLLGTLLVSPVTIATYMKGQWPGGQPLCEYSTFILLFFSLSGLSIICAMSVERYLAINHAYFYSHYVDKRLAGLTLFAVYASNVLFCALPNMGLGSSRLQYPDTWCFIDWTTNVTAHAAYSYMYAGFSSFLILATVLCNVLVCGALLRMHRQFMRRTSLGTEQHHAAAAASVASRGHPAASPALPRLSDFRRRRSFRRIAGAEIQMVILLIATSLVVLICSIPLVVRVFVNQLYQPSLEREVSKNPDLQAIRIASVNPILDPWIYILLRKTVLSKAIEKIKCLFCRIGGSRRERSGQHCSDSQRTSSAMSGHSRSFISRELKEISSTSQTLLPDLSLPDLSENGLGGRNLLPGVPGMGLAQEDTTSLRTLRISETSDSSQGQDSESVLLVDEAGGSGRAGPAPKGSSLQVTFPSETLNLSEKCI
T1 sequence (P43116 whole entry): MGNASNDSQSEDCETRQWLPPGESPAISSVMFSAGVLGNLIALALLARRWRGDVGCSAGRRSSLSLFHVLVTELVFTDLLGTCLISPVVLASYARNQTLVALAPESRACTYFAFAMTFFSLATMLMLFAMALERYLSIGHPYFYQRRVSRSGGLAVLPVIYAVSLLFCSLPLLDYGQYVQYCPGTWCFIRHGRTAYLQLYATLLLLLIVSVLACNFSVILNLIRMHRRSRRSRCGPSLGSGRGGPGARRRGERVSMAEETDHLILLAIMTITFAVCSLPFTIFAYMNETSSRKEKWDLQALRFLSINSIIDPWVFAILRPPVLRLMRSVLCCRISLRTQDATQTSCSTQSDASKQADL

Row | EC50 [1] | EP2 Ca2+ signal % PGE2 [1] | EC50 [2] | EC50 [3] | EC50 [4] | EP4 Ca2+ signal % PGE2 [4] | EC50 [5] | EC50 [6] | EP4 Binding % Inh [6] | EC50 [7] | EP2 Binding % Inh [7] | EC50 [8] | Structure (SMILES)
1 | 4 nM | 107% | 0.03 nM | 6 nM | 46 nM | 107% | 178 nM | 885 nM | 81% | 25 nM | 99% | 13 nM | C[C@@H](O)CCC[C@H](O)/C=C/[C@@H]1[C@@H](C/C=C\CCCC(=O)O)[C@H](Cl)C[C@H]1O
2 | 109 nM | 100% | 1.47 nM | – | 727 nM | 99% | – | – | 29% | 1220 nM | 78% | – | C[C@@H](O)CCC[C@H](O)/C=C/[C@@H]1[C@@H](CCCCCCC(=O)O)[C@H](Cl)C[C@H]1O
